Data published in patent US20240287022A1 (Merck Sharp & Dohme LLC, priority 2021, published 2024).

Molecular target: recombinant IL4I1 (Homo sapiens (Human), UniProt Q96RQ9)
Assay: IL4I1 Enzymatic Assay (Amplex Red/HRP coupled H2O2 detection)
Assay type: biochemical
Settings: 1 nM IL4I1, 1 mM each Phe/Tyr/Trp, four-hour pre-incubation, 120 minutes reaction, top compound concentration of 10000 nM
Method in brief: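 Recombinant IL4I1 (1 nM final) was pre-incubated 4 h at ambient temperature with compound in 50 mM Hepes pH 7.0, 0.005% Tween20. Reaction ran 120 min with 1 mM each Phe/Tyr/Trp, 0.05 mM Amplex Red and 1 U/mL HRP. Resorufin fluorescence (544/590 nm) was read, and EC50 fitted from ten-point 1:3 titrations (top 10000 nM) by four-parameter regression.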

Sequence of recombinant IL4I1 (Q96RQ9 22-567): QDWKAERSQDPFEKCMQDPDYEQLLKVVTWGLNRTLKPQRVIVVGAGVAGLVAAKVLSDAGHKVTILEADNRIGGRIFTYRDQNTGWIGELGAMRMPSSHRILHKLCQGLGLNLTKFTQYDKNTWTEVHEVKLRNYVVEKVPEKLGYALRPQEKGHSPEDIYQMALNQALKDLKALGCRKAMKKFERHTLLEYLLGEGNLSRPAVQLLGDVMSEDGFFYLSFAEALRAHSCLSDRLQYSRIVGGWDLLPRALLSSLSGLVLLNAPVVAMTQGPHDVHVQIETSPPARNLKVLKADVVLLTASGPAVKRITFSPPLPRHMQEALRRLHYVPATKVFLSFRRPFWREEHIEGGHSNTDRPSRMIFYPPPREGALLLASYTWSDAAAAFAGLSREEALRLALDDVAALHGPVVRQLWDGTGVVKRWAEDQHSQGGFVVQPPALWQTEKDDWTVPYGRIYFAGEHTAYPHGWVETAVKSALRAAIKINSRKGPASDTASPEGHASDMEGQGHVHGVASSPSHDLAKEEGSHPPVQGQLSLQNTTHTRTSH

| Compound | EC50 |
| --- | --- |
| O=c1[nH]c2ccccc2cc1Cc1nnc(-c2ccccc2)o1 [Example 5, 3-((5-phenyl-1,3,4-oxadiazol-2-yl)methyl)quinolin-2(1H)-one] | 42 nM |
| O=c1[nH]c2ccccc2cc1Cc1ccc([C@@H]2CCNC2)cc1 [65A] | 7.1 nM |
| O=c1[nH]c2ccccc2cc1Cc1nnc(-c2c[nH]c(C3CC3)n2)o1 [Example 18, 3-((5-(2-cyclopropyl-1H-imidazol-4-yl)-1,3,4-oxadiazol-2-yl)methyl)quinolin-2(1H)-one] | 23.4 nM |
| CCn1cc(Cc2cc3ccccc3[nH]c2=O)cn1 [Example 112, 3-((1-ethyl-1H-pyrazol-4-yl)methyl)quinolin-2(1H)-one] | 60.5 nM |
| O=c1[nH]c2ccccc2cc1Cc1ccc2occc(=O)c2c1 [Example 130, 3-((4-oxo-4H-chromen-6-yl)methyl)quinolin-2(1H)-one] | 1.8 nM |
| O=c1[nH]c2ccccc2cc1Cc1nnc(-c2cn[nH]c2)o1 [Example 6, 3-((5-(1H-pyrazol-4-yl)-1,3,4-oxadiazol-2-yl)methyl)quinolin-2(1H)-one] | 2.8 nM |
| CC(C)(O)CN1Cc2ccc(Cc3cc4ccccc4[nH]c3=O)cc2C1=O [Example 94, 3-((2-(2-hydroxy-2-methylpropyl)-3-oxoisoindolin-5-yl)methyl)quinolin-2(1H)-one] | 29.6 nM |

Continued, values first:

| EC50 | Compound |
| --- | --- |
| 99 nM | NCc1cccc2cc(Cc3cccc(OC(F)(F)F)c3)c(=O)[nH]c12 [Example 178, 8-(aminomethyl)-3-(3-(trifluoromethoxy)benzyl)quinolin-2(1H)-one] |
| 3.2 nM | CC1(O)CC(c2ccc(Cc3cc4ccccc4[nH]c3=O)cc2)C1 (stereo not shown) [Example 161, 3-(4-(3-hydroxy-3-methylcyclobutyl)benzyl)quinolin-2(1H)-one] |
| 2.3 nM | CN1C(=O)COc2ccc(Cc3cc4ccccc4[nH]c3=O)cc21 [Example 169, 4-Methyl-6-((2-oxo-1,2-dihydroquinolin-3-yl)methyl)-2H-benzo[b][1,4]oxazin-3(4H)-one] |
